# Measurements reported in ChEMBL document CHEMBL5058564, “EUbOPEN Chemogenomics Library 2 (Incucyte)” (2022).
# Experiments:
# Format in all cases: toxicity, cell-based
# Fibroblast = assay: Incucyte cell viability with human fibroblast; conditions: 10 µM, compound concentration 10 uM
# U2OS = assay: Incucyte cell viability with U2OS; conditions: human, 10 µM, compound concentration 10 uM
# HEK-293T = assay: Incucyte cell viability with HEK293T; conditions: human, 10 µM, compound concentration 10 uM
# [1] = 0 h, replicate number 2, timepoint 0 hours
# [2] = 6 h, replicate number 1, timepoint 6 hours
# [3] = 6 h, replicate number 2, timepoint 6 hours
# [4] = 12 h, replicate number 1, timepoint 12 hours
# [5] = 12 h, replicate number 2, timepoint 12 hours
# [6] = 18 h, replicate number 1, timepoint 18 hours
# [7] = 18 h, replicate number 2, timepoint 18 hours
# [8] = 24 h, replicate number 1, timepoint 24 hours
# [9] = 24 h, replicate number 2, timepoint 24 hours
# Further: unitless GR value; below 1 slowed growth and below 0 cell loss.
Structure (SMILES),Growth Rate (Fibroblast; [2]),Growth Rate (Fibroblast; [3]),Growth Rate (Fibroblast; [4]),Growth Rate (Fibroblast; [5]),Growth Rate (Fibroblast; [6]),Growth Rate (Fibroblast; [7]),Growth Rate (Fibroblast; [8]),Growth Rate (U2OS; [5]),Growth Rate (U2OS; [6]),Growth Rate (U2OS; [7]),Growth Rate (U2OS; [8]),Growth Rate (U2OS; [9]),Growth Rate (HEK-293T; [2]),Growth Rate (HEK-293T; [4]),Growth Rate (HEK-293T; [6]),Growth Rate (HEK-293T; [7]),Growth Rate (HEK-293T; [8]),Growth Rate (HEK-293T; [9]),Growth Rate (U2OS; [2]),Growth Rate (U2OS; [4]),further results
S=C(NCCCc1c[nH]cn1)NCCCN(Cc1ccc(Cl)c(Cl)c1)c1ccc(Br)cn1,-0.23,0.5,0.17,0.18,-0.18,0.55,-0.16,0.84,0.88,0.68,0.83,0.67,0.16,0.08,0.15,0.19,0.15,0.2,–,–,"Growth Rate (Fibroblast; 0 h, replicate number 1, timepoint 0 hours): 0.28; Growth Rate (Fibroblast; [1]): 0.91; Growth Rate (Fibroblast; [9]): 0.74; Growth Rate (U2OS; [1]): -1; Growth Rate (HEK-293T; [3]): -0.21"
COc1ccc2cc(S(=O)(=O)N[C@H](CC(=O)N[C@H](Cc3ccc(CN4[C@H](C)CCC[C@@H]4C)cc3)C(=O)N(C)C(C)C)c3ccc4c(c3)OCO4)ccc2c1.Cl,-0.65,-0.35,-0.6,-0.1,-0.65,-0.15,-0.57,0.61,0.67,0.57,0.69,0.53,-0.08,0.01,0.02,0.41,0.01,0.42,0.84,0.63,Growth Rate (Fibroblast; [1]): -0.08; Growth Rate (Fibroblast; [9]): -0.02; Growth Rate (U2OS; [1]): -0.35; Growth Rate (HEK-293T; [5]): 0.35
COc1ccc(C(=O)N2CCN(C(=O)/C=C/c3ccc(Br)cc3)CC2)cc1,-0.51,–,0.15,0.95,0.44,0.79,0.08,0.72,0.64,0.63,0.88,0.73,0.09,–,–,–,–,–,-0.38,0.8,Growth Rate (Fibroblast; [1]): 0.76; Growth Rate (U2OS; [3]): 0.66
CC(C)n1cnc2c(Nc3cccc(Cl)c3)nc(N[C@H]3CCCC[C@@H]3N)nc21,0.31,-0.31,0.73,0.36,0.33,–,0.41,0.04,0.03,-0.02,0.06,0.05,-0.84,-0.51,-0.35,-0.48,-0.25,-0.39,-0.04,-0.12,Growth Rate (U2OS; [3]): 0.4; Growth Rate (HEK-293T; [3]): -0.89; Growth Rate (HEK-293T; [5]): -0.69
NC(=O)c1cc2c(-c3ccc(C(=O)NCc4ccnc(Cl)c4)s3)cccc2s1,-0.81,-0.97,-0.77,-0.62,-0.53,-0.15,-0.39,0.03,0.07,0,-0.11,-0.08,-0.01,-0.09,-0.18,-0.06,-0.15,0.01,-0.27,-0.23,Growth Rate (Fibroblast; [9]): 0.32; Growth Rate (U2OS; [1]): -0.83; Growth Rate (U2OS; [3]): 0.04; Growth Rate (HEK-293T; [3]): 0.1; Growth Rate (HEK-293T; [5]): 0.13
